In US20220257639A1, “TREATMENT OF PATIENTS UNDER ANTIPLATELET MEDICATION EXPERIENCING ACUTE BLEEDING COMPLICATIONS DURING/AFTER SURGERY” (priority 2019, published 2022):

B1: PEAR1-EC: PEAR1 extracellular domain protein (Kauskot et al.) (protein, UniProt Q5VY43 21-755, looked up)
extracellular domain: LNPSDPNTCSFWESFTTTTKESHSRPFSLLPSEPCERPWEGPHTCPQPTVVYRTVYRQVVKTDHRQRLQCCHGFYESRGFCVPLCAQECVHGRCVAPNQCQCVPGWRGDDCSSECAPGMWGPQCDKPCSCGNNSSCDPKSGVCSCPSGLQPPNCLQPCTPGYYGPACQFRCQCHGAPCDPQTGACFCPAERTGPSCDVSCSQGTSGFFCPSTHSCQNGGVFQTPQGSCSCPPGWMGTICSLPCPEGFHGPNCSQECRCHNGGLCDRFTGQCRCAPGYTGDRCREECPVGRFGQDCAETCDCAPDARCFPANGACLCEHGFTGDRCTDRLCPDGFYGLSCQAPCTCDREHSLSCHPMNGECSCLPGWAGLHCNESCPQDTHGPGCQEHCLCLHGGVCQATSGLCQCAPGYTGPHCASLCPPDTYGVNCSARCSCENAIACSPIDGECVCKEGWQRGNCSVPCPPGTWGFSCNASCQCAHEAVCSPQTGACTCTPGWHGAHCQLPCPKGQFGEGCASRCDCDHSDGCDPVHGRCQCQAGWMGARCHLSCPEGLWGVNCSNTCTCKNGGTCLPENGNCVCAPGFRGPSCQRSCQPGRYGKRCVPCKCANHSFCHPSNGTCYCLAGWTGPDCSQPCPPGHWGENCAQTCQCHHGGTCHPQDGSCICPLGWTGHHCLEGCPLGTFGANCSQPCQCGPGEKCHPETGACVCPPGHSGAPCRIGIQEPFTVMPTTPVAYNSL
modifications: extracellular domain

Assays:
[1] = system: human platelets in plasma; assay: Platelet aggregation in platelet-rich plasma (light transmission aggregometry); assay type: cell-based; conditions: in the presence of both TPα and P2Y12 antagonists (dual inhibition; DAPT), FIG. 3
[2] = system: human platelets in plasma; assay: as above; assay type: cell-based; conditions: 20 min, n=5, mean±S.E.M.
Protocol: With approval from the regional ethical board Örebro-Uppsala county (Dnr 2015/543) blood was obtained from healthy volunteers, who denied to have taken any medication two weeks prior to donation, by venipuncture and drawn into 10 ml syringes preloaded by the supplier with trisodium citrate solution (Sarstedt, Nümbrecht, Germany, Order number: 02.1067.001) The blood was and centrifuged at 220 g for 20 min. The PRP thus obtained was transferred into fresh 15 ml polypropylene tubes, and the remaining blood was centrifuged at 2200 g for 20 min to separate the PPP from remaining blood cells.
Measurements were performed at 37° C. using Chrono-Log lumi-aggregometer (Model 700, Chrono-log Corporation, Havertown, Pa., USA) with stirring at 900 rev./min using a final volume of 0.3 ml platelet suspension. Aggregation is expressed as percentage light transmission compared with PPP alone (=100%).
Platelets were preincubated with vehicle or AR-C66096 as indicated for 5 min followed by the stimulation with 1 μg/ml collagen, 10 μM SFLLRN, 30 μg/ml C34, 10 μg/ml fucoidan, or 30 μg/ml dextran sulfate (DxS) (FIG. 4A).
Platelets were preincubated with vehicle or ICI 192,506 as indicated for 5 min followed by the stimulation with 1 μg/ml collagen, 10 μM SFLLRN, 30 μg/ml C34, 10 μg/ml fucoidan, or 30 μg/ml dextran sulfate (DxS) (FIG. 4B).
Platelets were preincubated with vehicle or AR-C66096 and ICI 192,506 as indicated for 5 min followed by the stimulation with 1 μg/ml collagen, 10 μM SFLLRN, 30 μg/ml C34, 10 μg/ml fucoidan, or 30 μg/ml dextran sulfate (DxS) (FIG. 4C).

[3] = system: washed (isolated) human platelets; conditions: from Kauskot et al. [4]; cited from earlier work
[4] = FIG. 4A, in the presence of P2Y12 receptor antagonist AR-C66096 (5 min preincubation), same agonist concentrations
[5] = FIG. 4A, vehicle preincubation (no antagonist), 1 μg/ml collagen, 10 μM SFLLRN, 30 μg/ml C34, 10 μg/ml fucoidan, 30 μg/ml DxS
[6] = FIG. 4B, in the presence of TPα receptor antagonist ICI 192,605 (5 min preincubation), same agonist concentrations
[7] = FIG. 4B, vehicle preincubation (no antagonist), same agonist concentrations
[8] = FIG. 4C, dual inhibition with AR-C66096 and ICI 192,605 (5 min preincubation), same agonist concentrations
[9] = FIG. 4C, vehicle preincubation (no antagonist), same agonist concentrations

Molecule | course of platelet aggregation under dual inhibition (reversibility of first phase) [1] | extent of platelet aggregation (percentage light transmission compared with PPP) [2, 4] [%] | extent of platelet aggregation (percentage light transmission compared with PPP) [2, 5] [%] | extent of platelet aggregation (percentage light transmission compared with PPP) [2, 6] [%] | extent of platelet aggregation (percentage light transmission compared with PPP) [2, 7] [%] | extent of platelet aggregation (percentage light transmission compared with PPP) [2, 8] [%] | extent of platelet aggregation (percentage light transmission compared with PPP) [2, 9] [%] | aggregation of washed human platelets [3]
Collagen | only the first but reversible phase | 23±4 | 85±2 | 21±4 | 90±3 | 11±2 | 86±2 | –
SFLLRN | only the first but reversible phase | 5±1 | 91±3 | 15±6 | 91±3 | 3±1 | 93±2 | –
dextran sulfate [DxS] | irreversible and sustained | 23±6 | 84±5 | 39±7 | 88±6 | 37±6 | 88±6 | –
B1 | – | – | – | – | – | – | – | induce aggregation of washed (isolated) human platelets in a concentration-dependent fashion
